Assay results published in patent US11046699B2, “Pyrazolo-pyrimidin-amino-cycloalkyl compounds and their therapeutic uses” (RAPT THERAPEUTICS, INC., priority 2018, dated 2021).
Where two headings read alike, the source gives them in different places.

Molecular target: GCN2 (Homo sapiens, UniProt Q9P2K8)
Test: GCN2 enzymatic endpoint assay: phosphorylation of GFP-eIF2α measured by TR-FRET (Lanthascreen)
Assay type: biochemical
Procedure, shortened: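 2 μM ATP, 80 nM GFP-eIF2α, RT, 90 min; EDTA stop. Tb-anti-phospho antibody TR-FRET read, 520/495 nm ratio.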

[1] = tested as described in Example 77, compound and/or hydrochloride, dihydrochloride or trifluoroacetic acid salt, read-out: IC 50 Activity
[2] = GCN2 biochemical IC50, 4 nM GCN2, 2 μM ATP, 80 nM GFP-eIF2α, 90 min RT, read-out: GCN2 activity

GCN2, sequence (Q9P2K8 whole entry): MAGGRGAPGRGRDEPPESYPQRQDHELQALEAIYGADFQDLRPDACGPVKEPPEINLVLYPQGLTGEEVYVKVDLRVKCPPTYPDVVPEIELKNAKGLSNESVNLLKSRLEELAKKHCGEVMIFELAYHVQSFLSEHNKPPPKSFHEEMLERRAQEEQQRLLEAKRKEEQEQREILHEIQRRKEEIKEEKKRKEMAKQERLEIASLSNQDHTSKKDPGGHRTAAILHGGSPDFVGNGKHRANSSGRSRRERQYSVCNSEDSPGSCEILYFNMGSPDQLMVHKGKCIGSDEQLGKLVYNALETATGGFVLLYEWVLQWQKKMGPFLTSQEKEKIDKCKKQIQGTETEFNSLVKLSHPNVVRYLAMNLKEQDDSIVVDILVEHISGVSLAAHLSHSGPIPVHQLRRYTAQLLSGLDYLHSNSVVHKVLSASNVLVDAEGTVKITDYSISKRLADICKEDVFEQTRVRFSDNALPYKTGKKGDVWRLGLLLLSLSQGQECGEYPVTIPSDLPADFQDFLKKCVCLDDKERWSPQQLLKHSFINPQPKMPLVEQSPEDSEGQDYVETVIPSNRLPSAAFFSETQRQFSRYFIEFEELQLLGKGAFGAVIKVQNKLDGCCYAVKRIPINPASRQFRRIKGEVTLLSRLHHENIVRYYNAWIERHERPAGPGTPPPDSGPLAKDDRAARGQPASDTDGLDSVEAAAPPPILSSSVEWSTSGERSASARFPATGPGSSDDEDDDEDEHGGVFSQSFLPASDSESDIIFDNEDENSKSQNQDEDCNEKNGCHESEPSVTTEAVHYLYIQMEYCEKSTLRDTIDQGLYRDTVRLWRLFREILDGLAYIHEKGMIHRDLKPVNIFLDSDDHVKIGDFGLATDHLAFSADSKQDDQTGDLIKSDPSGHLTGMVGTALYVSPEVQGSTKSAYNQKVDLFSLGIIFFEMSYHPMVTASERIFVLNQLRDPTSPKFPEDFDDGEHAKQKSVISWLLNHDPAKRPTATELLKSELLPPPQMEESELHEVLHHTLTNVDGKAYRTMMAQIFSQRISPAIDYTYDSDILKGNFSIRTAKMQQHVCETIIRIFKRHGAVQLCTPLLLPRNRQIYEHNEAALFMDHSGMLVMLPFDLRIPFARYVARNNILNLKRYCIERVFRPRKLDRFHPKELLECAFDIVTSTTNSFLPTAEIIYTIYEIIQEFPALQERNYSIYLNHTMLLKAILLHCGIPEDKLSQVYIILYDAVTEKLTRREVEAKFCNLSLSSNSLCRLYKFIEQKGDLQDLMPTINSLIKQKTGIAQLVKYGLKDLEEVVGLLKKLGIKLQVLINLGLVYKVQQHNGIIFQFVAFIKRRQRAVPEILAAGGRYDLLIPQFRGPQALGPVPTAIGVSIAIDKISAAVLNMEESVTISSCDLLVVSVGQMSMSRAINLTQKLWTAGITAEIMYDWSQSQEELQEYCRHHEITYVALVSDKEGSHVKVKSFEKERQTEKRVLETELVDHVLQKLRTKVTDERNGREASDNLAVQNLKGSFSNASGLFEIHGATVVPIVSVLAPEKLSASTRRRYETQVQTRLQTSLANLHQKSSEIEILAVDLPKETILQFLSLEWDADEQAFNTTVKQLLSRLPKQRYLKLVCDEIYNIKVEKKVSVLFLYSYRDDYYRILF

Row | Compound | IC50 [1] | IC50 [2]
1 | C[C@@]1(C(=O)NCC2(O)CC2)CC[C@@H](Nc2ncc3c(Br)nn(-c4cc(F)c5ncccc5c4)c3n2)C1 [(1R,3R)-3-[[3-bromo-1-(8-fluoro-6-quinolyl)pyrazolo[3,4-d]pyrimidin-6-yl]amino]-N-[(1-hydroxycyclopropyl)methyl]-1-methyl-cyclopentanecarboxamide] | < 25 nM | –
2 | CS(=O)(=O)CCNC(=O)[C@@H]1CC[C@@H](Nc2ncc3c(Br)nn(-c4ccc5nccnc5c4)c3n2)C1 [(1R,3R)-3-((3-bromo-1-(quinoxalin-6-yl)-1H-pyrazolo[3,4-d]pyrimidin-6-yl)amino)-N-(2-(methylsulfonyl)ethyl)cyclopentane-1-carboxamide] | 200 to 500 nM | –
3 | Cc1nnc(-c2ccc(-n3nc(Br)c4cnc(N[C@@H]5CC[C@@H](P(C)(C)=O)C5)nc43)cc2)s1 [Example 57, ((1R,3R)-3-((3-bromo-1-(4-(5-methyl-1,3,4-thiadiazol-2-yl)phenyl)-1H-pyrazolo[3,4-d]pyrimidin-6-yl)amino)cyclopentyl)dimethylphosphine oxide] | – | 25 to 200 nM
4 | C[C@@]1(C(=O)N2CCN3C(=O)CC[C@H]3C2)CC[C@@H](Nc2ncc3c(Br)nn(-c4cc(F)c5ncccc5c4)c3n2)C1 [(8aS)-2-[(1R,3R)-3-[[3-bromo-1-(8-fluoro-6-quinolyl)pyrazolo[3,4-d]pyrimidin-6-yl]amino]-1-methyl-cyclopentanecarbonyl]-1,3,4,7,8,8a-hexahydropyrrolo[1,2-a]pyrazin-6-one] | 25 to 200 nM | –
5 | CNC(=O)[C@]1(C)CC[C@@H](Nc2ncc3c(Br)nn(-c4ccc5c(c4)CCCN5)c3n2)C1 [(1R,3R)-3-[[3-bromo-1-(1,2,3,4-tetra-hydroquinolin-6-yl)pyrazolo[3,4-d]pyrimidin-6-yl]amino]-N,1-dimethyl-cyclopentanecarboxamide] | 25 to 200 nM | –
6 | CNC(=O)C1(C(C)C#N)CC[C@@H](Nc2ncc3c(Br)nn(-c4ccc(-c5nnc(C)s5)c(CCC#N)c4)c3n2)C1 (stereo partly shown) | 25 to 200 nM | –
7 | CNC(=O)C1(C)CC[C@@H](Nc2ncc3c(Br)nn(-c4cc(F)cc(CO)c4)c3n2)C1 (stereo partly drawn) [(3R)-3-[[3-bromo-1-[3-fluoro-5-(hydroxymethyl)phenyl]pyrazolo[3,4-d]pyrimidin-6-yl]amino]-N,1-dimethyl-cyclopentanecarboxamide] | 25 to 200 nM | –
8 | CNC(=O)[C@]1(C)CC[C@@H](Nc2ncc3c(Br)nn(-c4cnc5c(CCN)cccc5c4)c3n2)C1 [(1R,3R)-3-[[1-[8-(2-aminoethyl)-3-quinolyl]-3-bromo-pyrazolo[3,4-d]pyrimidin-6-yl]amino]-N,1-dimethyl-cyclopentane-carboxamide] | 25 to 200 nM | –
9 | C[C@@]1(C(=O)O)CC[C@@H](Nc2ncc3c(Br)nn(-c4cc(CCN)c5ncccc5c4)c3n2)C1 [(1R,3R)-3-[[1-[8-(2-aminoethyl)-6-quinolyl]-3-bromo-pyrazolo[3,4-d]pyrimidin-6-yl]amino]-1-methyl-cyclopentanecarboxylic acid] | < 25 nM | –
10 | N#Cc1cc(-n2nc(Br)c3cnc(N[C@@H]4CC[C@@H](C(=O)NCC5CC5)C4)nc32)cc2cccnc12 [(1R,3R)-3-((3-bromo-1-(8-cyanoquinolin-6-yl)-1H-pyrazolo[3,4-d]pyrimidin-6-yl)amino)-N-(cyclopropylmethyl)cyclo-pentane-1-carboxamide] | 25 to 200 nM | –
11 | CNC(=O)[C@@]1(C)CC[C@@H](Nc2ncc3c(Br)nn(-c4cc(C#N)c5ncccc5c4)c3n2)C1 [(1S,3R)-3-((3-bromo-1-(8-cyanoquinolin-6-yl)-1H-pyrazolo[3,4-d]pyrimidin-6-yl)amino)-N,1-dimethylcyclopentane-1-carboxamide] | 25 to 200 nM | –
12 | CNC(=O)[C@]1(C)CC[C@@H](Nc2ncc3c(Br)nn(-c4cc(Cl)cc([C@@H]5COC(=O)N5)c4)c3n2)C1 [(1R,3R)-3-[[3-bromo-1-[3-chloro-5-[(4R)-2-oxooxazolidin-4-yl]phenyl]pyrazolo[3,4-d]pyrimidin-6-yl]amino]-N,1-dimethyl-cyclopentanecarboxamide] | < 25 nM | –
13 | CN1CCN(C(=O)[C@@H]2CC[C@@H](Nc3ncc4c(Br)nn(-c5ccc(-c6cccnc6)c(F)c5)c4n3)C2)CC1=O [Example 27, 4-((1R,3R)-3-((3-bromo-1-(3-fluoro-4-(pyridin-3-yl)phenyl)-1H-pyrazolo[3,4-d]pyrimidin-6-yl)amino)cyclopentane-1-carbonyl)-1-methylpiperazin-2-one] | – | 500 to 1000 nM
14 | CC(C)(O)CNC(=O)[C@@H]1CC[C@@H](Nc2ncc3c(Br)nn(-c4cc(F)c5ncccc5c4)c3n2)C1 | 25 to 200 nM | –
15 | O=C(N[C@@H]1CCOC1)[C@@H]1CC[C@@H](Nc2ncc3c(Br)nn(-c4ccc5ncccc5c4)c3n2)C1 [(1R,3R)-3-((3-bromo-1-(quinolin-6-yl)-1H-pyrazolo[3,4-d]pyrimidin-6-yl)amino)-N-((R)-tetrahydrofuran-3-yl)cyclopentane-1-carboxamide] | 25 to 200 nM | –
16 | COCCNC(=O)[C@@H]1CCC(Nc2ncc3c(Br)nn(-c4ccc(-c5nnc(C)s5)cc4)c3n2)C1 (stereo partly drawn) [(1R)-3-[[3-bromo-1-[4-(5-methyl-1,3,4-thiadiazol-2-yl)phenyl]pyrazolo[3,4-d]pyrimidin-6-yl]amino]-N-(2-methoxy-ethyl)cyclopentanecarboxamide] | 25 to 200 nM | –

Row | Compound | IC50 [1] | IC50 [2]
17 | Cc1nnc(-c2ccc(-n3nc(Br)c4cnc(N[C@@H]5CC[C@H](P(C)(C)=O)C5)nc43)cc2)s1 [3-bromo-N-[(1R,3S)-3-dimethylphosphoryl-cyclopentyl]-1-[4-(5-methyl-1,3,4-thiadiazol-2-yl)phenyl]pyrazolo[3,4-d]pyrimidin-6-amine] | 25 to 200 nM | –
18 | Cc1nnc(-c2ccc(-n3nc(Br)c4cnc(N[C@@H]5CC[C@@](C)(O)C5)nc43)cc2)s1 [Example 74, (1R,3R)-3-((3-bromo-1-(4-(5-methyl-1,3,4-thiadiazol-2-yl)phenyl)-1H-pyrazolo[3,4-d]pyrimidin-6-yl)amino)-1-methylcyclopentan-1-ol] | – | 25 to 200 nM
19 | O=C(O)C12CCC(Nc3ncc4c(Br)nn(-c5ccc6ncccc6c5)c4n3)(C1)C2 [4-((3-bromo-1-(quinolin-6-yl)-1H-pyrazolo [3,4-d]pyrimidin-6-yl)amino)bicyclo[2.1.1] hexane-1-carboxylic acid] | 500 to 1000 nM | –
20 | COC[C@H](C)NC(=O)[C@@H]1CC[C@@H](Nc2ncc3c(Br)nn(-c4ccc5ncccc5c4)c3n2)C1 [(1R,3R)-3-((3-bromo-1-(quinolin-6-yl)-1H-pyrazolo[3,4-d]pyrimidin-6-yl)amino)-N-((S)-1-methoxypropan-2-yl)cyclopentane-1-carboxamide] | 25 to 200 nM | –
21 | N#Cc1cc(-n2nc(Br)c3cnc(N[C@@H]4CC[C@@H](C(=O)N[C@@H]5CNC[C@@H]5F)C4)nc32)cc2cccnc12 [(1R,3R)-3-((3-bromo-1-(8-cyanoquinolin-6-yl)-1H-pyrazolo[3,4-d]pyrimidin-6-yl)amino)-N-((3R,4S)-4-fluoropyrrolidin-3-yl)cyclo-pentane-1-carboxamide] | < 25 nM | –
22 | CNC(=O)[C@]1(C)CC[C@@H](Nc2ncc3c(Br)nn(-c4cc(OC)c5c(c4)OCC(=O)N5C)c3n2)C1 [(1R,3R)-3-[[3-bromo-1-(5-methoxy-4-methyl-3-oxo-1,4-benzoxazin-7-yl)pyrazolo[3,4-d]pyrimidin-6-yl]amino]-N,1-dimethyl-cyclopentanecarboxamide] | < 25 nM | –
23 | CNC(=O)[C@]1(C)CC[C@@H](Nc2ncc3c(Br)nn(-c4cc(CNCC(F)F)c5ncccc5c4)c3n2)C1 [(1R,3R)-3-[[3-bromo-1-[8-[(2,2-difluoroethylamino)methyl]-6-quinolyl]pyrazolo[3,4-d]pyrimidin-6-yl]amino]-N,1-dimethyl-cyclopentanecarboxamide] | 25 to 200 nM | –
24 | CNC(=O)[C@]1(C)CC[C@@H](Nc2ncc3c(Br)nn(-c4cc(C(C)CO)c5ncccc5c4)c3n2)C1 (stereo partly drawn) [(1R,3R)-3-[[3-bromo-1-[8-(2-hydroxy-1-methyl-ethyl)-6-quinolyl]pyrazolo[3,4-d]pyrimidin-6-yl]amino]-N,1-dimethyl-cyclopentanecarboxamide] | < 25 nM | –
25 | CNC(=O)[C@]1(C)CC[C@@H](Nc2ncc3c(Br)nn(-c4cc(C#N)c5c(c4)CCO5)c3n2)C1 [Example 50, (1R,3R)-3-((3-bromo-1-(7-cyano-2,3-dihydrobenzofuran-5-yl)-lH-pyrazolo[3,4-d]pyrimidin-6-yl)amino)-N,1-dimethylcyclopentane-1-carboxamide; 2,2,2-trifluoroacetic acid] | – | 25 to 200 nM
26 | CNS(=O)(=O)C1CC[C@@H](Nc2ncc3c(Br)nn(-c4ccc(-c5nnc(C)s5)cc4)c3n2)C1 (stereo partly drawn) [(3R)-3-[[3-bromo-1-[4-(5-methyl-1,3,4-thiadiazol-2-yl)phenyl]pyrazolo[3,4-d]pyrimidin-6-yl]amino]-N-methyl-cyclopentanesulfonamide] | 25 to 200 nM | –
27 | CC1(C(=O)NC2(C#N)CC2)CC[C@@H](Nc2ncc3c(Br)nn(-c4cc(F)c5ncccc5c4)c3n2)C1 (stereo partly drawn) [(3R)-3-[[3-bromo-1-(8-fluoro-6-quinolyl)pyrazolo[3,4-d]pyrimidin-6-yl]amino]-N-(1-cyanocyclopropyl)-1-methyl-cyclopentane-carboxamide] | < 25 nM | –
28 | CNC(=O)[C@]1(C)CC[C@@H](Nc2ncc3c(Br)nn(-c4ccc5c(c4)S(=O)(=O)CC(=O)N5C)c3n2)C1 | 25 to 200 nM | –
29 | CNC(=O)C1(C)CC[C@@H](Nc2ncc3c(Br)nn(-c4ccc5nc(C(C)(C)O)ccc5c4)c3n2)C1 (stereo partly drawn) [(3R)-3-[[3-bromo-1-[2-(1-hydroxy-1-methyl-ethyl)-6-quinolyl]pyrazolo[3,4-d]pyrimidin-6-yl]amino]-N,1-dimethyl-cyclopentane-carboxamide] | 25 to 200 nM | –
30 | CNC(=O)[C@]1(C)CC[C@@H](Nc2ncc3c(Br)nn(-c4cc([C@@H](C)CO)c5ncccc5c4)c3n2)C1 [(1R,3R)-3-[[3-bromo-1-[8-[(1R)-2-hydroxy-1-methyl-ethyl]-6-quinolyl]pyrazolo[3,4-d]pyrimidin-6-yl]amino]-N,1-dimethyl-cyclo-pentanecarboxamide] | < 25 nM | –
31 | C[C@]1(C(=O)N[C@@H]2CCOC2)C[C@H](Nc2ncc3c(Br)nn(-c4ccc5ncccc5c4)c3n2)C1 | 25 to 200 nM | –
